Laboratory results published in publication PMC7217150, “Synthesis, Modification, and Biological Evaluation of a Library of Novel Water‐Soluble Thiopyridone‐Based Organometallic Complexes and Their Unexpected (Biological) Behavior” (Chemistry (Weinheim an Der Bergstrasse, Germany), 2020).

Tests used:
Type in all cases: cell-based, human
A549 = assay: MTT cytotoxicity assay, monolayer culture; details: Homo sapiens, exposure time 96 h, means ± SDs
From the text: (§1) A549 (non‐small cell lung carcinoma), SW480 and HCT‐116 (both colon carcinoma) were kindly provided by Brigitte Marian, Institute of Cancer Research, Department of Medicine I, Medical University of Vienna, Austria. The cell line CH1/PA‐1 (ovarian teratocarcinoma) was kindly provided by Lloyd R. Kelland (CRC Centre for Cancer Therapeutics, Institute of Cancer Research, Sutton, UK). All cell culture media (including supplements) and reagents were obtained from Sigma–Aldrich, and all plasticware from StarLab, unless indicated otherwise.

CH1/PA‐1 [1] = assay: MTT cytotoxicity assay, monolayer culture; details: Homo sapiens; CH1/PA‐1, MTT assay, exposure time 96 h, means ± SDs
From the text: as §1

SW480 [2] = assay: MTT cytotoxicity assay, monolayer culture; details: Homo sapiens; SW480, MTT assay, exposure time 96 h, means ± SDs
From the text: as §1

CH1/PA‐1 [3] = assay: Cell cycle distribution, flow cytometry with propidium iodide; details: for Cell cycle distribution G1, % / Cell cycle distribution G2/M, % / Cell cycle distribution S, %: 24 h, mean ± SD; for Relative change in cell cycle distribution G1, % / Relative change in cell cycle distribution G2/M, % / Relative change in cell cycle distribution S, %: difference to untreated control
Protocol: (§2) The influence of two ligands, as well as seven complexes on cell cycle distribution was tested in two of the cancer cell lines (SW480, CH1/PA‐1) by means of flow cytometry. The cell cycle distribution (G1, S, G2/M phase in %; Table S37) was investigated upon DNA staining with propidium iodide.
(§3) CH1/PA‐1 and SW480 cells were harvested by trypsinization, 8×10^4 and 1.2×10^5 cells per well were seeded into 12‐well plates, respectively. The cells were allowed to attach and resume proliferation for 24 h after the seeding. […] After continuous exposure for 24 h at 37 °C and under 5 % CO2, the cells were harvested by trypsinization and centrifuged at 300 g for 3 min. The cells were washed with PBS (1 mL) and resuspended in propidium iodine (PI) containing HSF buffer (600 μL; 0.1 % Triton X‐100, 0.1 % sodium citrate, 50 μg mL^−1 PI in PBS). After incubation overnight at 4 °C in the dark, 5×10^3 cells were measured by flow cytometry with a Millipore Guava easyCyte 8HT instrument (Luminex, USA). Data were evaluated by means of FlowJo software (Tree Star) using Watson Pragmatic algorithms.60 The fitting of the curve was chosen to keep the root mean square error between 1.0 and 2.0, alongside with good fitting visual model.

SW480 [4] = assay: as above; details: for Cell cycle distribution G1, % / Cell cycle distribution G2/M, % / Cell cycle distribution S, %: 24 h, mean ± SD; for Relative change in cell cycle distribution G1, % / Relative change in cell cycle distribution G2/M, % / Relative change in cell cycle distribution S, %: difference to untreated control
Protocol: as §2, §3

Structure (SMILES): Cc1c(O)c(=S)ccn1C [Compound 2 a, 3‐hydroxy‐1,2‐dimethylpyridine‐4(1H)‐thione]
- IC50 (A549): 66 ± 6 µM
- IC50 (CH1/PA‐1 [1]): 15 ± 1 µM
- IC50 (SW480 [2]): 3.2 ± 0.3 µM
- Cell cycle distribution G1, % (CH1/PA‐1 [3]; CH1/PA-1, 5 µM): 33 ± 4%
- Cell cycle distribution G2/M, % (CH1/PA‐1 [3]; CH1/PA-1, 5 µM): 27 ± 5%
- Cell cycle distribution S, % (CH1/PA‐1 [3]; CH1/PA-1, 5 µM): 40 ± 3%
- Relative change in cell cycle distribution G1, % (CH1/PA‐1 [3]; CH1/PA-1, 5 µM): -7%
- Relative change in cell cycle distribution G2/M, % (CH1/PA‐1 [3]; CH1/PA-1, 5 µM): 3%
- Relative change in cell cycle distribution S, % (CH1/PA‐1 [3]; CH1/PA-1, 5 µM): 4%
- Cell cycle distribution G1, % (CH1/PA‐1 [3]; CH1/PA-1, 10 µM): 33 ± 4%
- Cell cycle distribution G2/M, % (CH1/PA‐1 [3]; CH1/PA-1, 10 µM): 26 ± 6%
- Cell cycle distribution S, % (CH1/PA‐1 [3]; CH1/PA-1, 10 µM): 41 ± 8%
- Relative change in cell cycle distribution G1, % (CH1/PA‐1 [3]; CH1/PA-1, 10 µM): -7%
- Relative change in cell cycle distribution G2/M, % (CH1/PA‐1 [3]; CH1/PA-1, 10 µM): 2%
- Relative change in cell cycle distribution S, % (CH1/PA‐1 [3]; CH1/PA-1, 10 µM): 5%
- Cell cycle distribution G1, % (CH1/PA‐1 [3]; CH1/PA-1, 20 µM): 35 ± 3%
- Cell cycle distribution G2/M, % (CH1/PA‐1 [3]; CH1/PA-1, 20 µM): 28 ± 4%
- Cell cycle distribution S, % (CH1/PA‐1 [3]; CH1/PA-1, 20 µM): 37 ± 9%
- Relative change in cell cycle distribution G1, % (CH1/PA‐1 [3]; CH1/PA-1, 20 µM): -5%
- Relative change in cell cycle distribution G2/M, % (CH1/PA‐1 [3]; CH1/PA-1, 20 µM): 4%
- Relative change in cell cycle distribution S, % (CH1/PA‐1 [3]; CH1/PA-1, 20 µM): 1%
- Cell cycle distribution G1, % (SW480 [4]; SW480, 5 µM): 45 ± 1%
- Cell cycle distribution G2/M, % (SW480 [4]; SW480, 5 µM): 23 ± 0%
- Cell cycle distribution S, % (SW480 [4]; SW480, 5 µM): 32 ± 2%
- Relative change in cell cycle distribution G1, % (SW480 [4]; SW480, 5 µM): -3%
- Relative change in cell cycle distribution G2/M, % (SW480 [4]; SW480, 5 µM): 4%
- Relative change in cell cycle distribution S, % (SW480 [4]; SW480, 5 µM): -1%
- Cell cycle distribution G1, % (SW480 [4]; SW480, 10 µM): 41 ± 1%
- Cell cycle distribution G2/M, % (SW480 [4]; SW480, 10 µM): 24 ± 1%
- Cell cycle distribution S, % (SW480 [4]; SW480, 10 µM): 35 ± 2%
- Relative change in cell cycle distribution G1, % (SW480 [4]; SW480, 10 µM): -7%
- Relative change in cell cycle distribution G2/M, % (SW480 [4]; SW480, 10 µM): 5%
- Relative change in cell cycle distribution S, % (SW480 [4]; SW480, 10 µM): 2%
- Cell cycle distribution G1, % (SW480 [4]; SW480, 20 µM): 44 ± 3%
- Cell cycle distribution G2/M, % (SW480 [4]; SW480, 20 µM): 22 ± 2%
- Cell cycle distribution S, % (SW480 [4]; SW480, 20 µM): 33 ± 2%
- Relative change in cell cycle distribution G1, % (SW480 [4]; SW480, 20 µM): -4%
- Relative change in cell cycle distribution G2/M, % (SW480 [4]; SW480, 20 µM): 3%
- Relative change in cell cycle distribution S, % (SW480 [4]; SW480, 20 µM): 0%
